Results taken from ChEMBL document CHEMBL4393706, “Ursolic acid derivative induces apoptosis in glioma cells through down-regulation of cAMP” (2019).
The source made the active and inactive calls. The rule behind the calls is not given here.

Columns and labels:
[1] = tested on: U-251; assay: Cell cycle arrest in human U251 cells assessed as accumulation at G0/G1 phase at 4 uM measured after 48 hrs by propidium iodide staining based FACScan flow cytometry (reference value: 29.21 %); format: functional
[2] = tested on: U-251; assay: Cell cycle arrest in human U251 cells assessed as accumulation at G2/M phase at 10 uM measured after 48 hrs by propidium iodide staining based FACScan flow cytometry (reference value: 52.67 %); format: functional
[3] = tested on: U-251; assay: Cell cycle arrest in human U251 cells assessed as accumulation at S phase at 6 uM measured after 48 hrs by propidium iodide staining based FACScan flow cytometry (reference value: 16.34 %); format: functional
[4] = tested on: U-251; assay: Cytotoxicity against human U251 cells at 5 uM measured after 48 hrs by MTT assay; format: functional, cell-based
[5] = tested on: C6; assay: Antiproliferative activity against rat C6 cells assessed as cell proliferation at 10 uM measured after 48 hrs relative to control; format: functional; details: C6, 48 h, read-out: Activity
[6] = tested on: U-251; assay: Induction of apoptosis in human U251 cells assessed as apoptotic cells at 6 uM measured after 48 hrs by annexin V/FITC-propidium iodide staining-based flow cytometric method relative to control; format: functional
[7] = tested on: C6; assay: Antiproliferative activity against rat C6 cells assessed as cell proliferation at 2 uM measured after 48 hrs relative to control; format: functional; details: C6, 48 h, read-out: Activity
[8] = tested on: U-251; assay: Induction of morphological changes in human U251 cells assessed as inhibtion of cell surface extension at 6 to 10 uM measured after 48 hrs by scanning electron microscopy; format: functional, cell-based
[9] = tested on: C6; assay: Antiproliferative activity against rat C6 cells assessed as cell proliferation at 6 uM measured after 48 hrs relative to control; format: functional; details: C6, 48 h, read-out: Activity
[10] = tested on: U-251; assay: Cell cycle arrest in human U251 cells assessed as accumulation at G0/G1 phase at 8 uM measured after 48 hrs by propidium iodide staining based FACScan flow cytometry (reference value: 29.21 %); format: functional
[11] = tested on: C6; assay: Antiproliferative activity against rat C6 cells assessed as cell proliferation at 4 uM measured after 48 hrs relative to control; format: functional; details: C6, 48 h, read-out: Activity
[12] = tested on: U-251; assay: Induction of morphological changes in human U251 cells assessed as appearance of lipid droplets at 10 uM measured after 48 hrs by transmission electron microscopy; format: functional, cell-based
[13] = tested on: U-251; assay: Cell cycle arrest in human U251 cells assessed as accumulation at G2/M phase at 6 uM measured after 48 hrs by propidium iodide staining based FACScan flow cytometry (reference value: 52.67 %); format: functional
[14] = tested on: C6; assay: Antiproliferative activity against rat C6 cells assessed as cell proliferation at 8 uM measured after 48 hrs relative to control; format: functional; details: C6, 48 h, read-out: Activity
[15] = tested on: U-251; assay: Antiproliferative activity against human U251 cells assessed as reduction in cAMP level at 6 uM measured after 48 hrs by radio-immunoassay relative to control; format: functional; design: scale not given: the % may be the effect or the level left
[16] = tested on: U-251; assay: Cell cycle arrest in human U251 cells assessed as accumulation at S phase at 8 uM measured after 48 hrs by propidium iodide staining based FACScan flow cytometry (reference value: 16.34 %); format: functional
[17] = tested on: U-251; assay: Induction of apoptosis in human U251 cells assessed as apoptotic cells at 10 uM measured after 48 hrs by annexin V/FITC-propidium iodide staining-based flow cytometric method relative to control; format: functional
[18] = tested on: U-251; assay: Induction of apoptosis in human U251 cells assessed as apoptotic cells at 8 uM measured after 48 hrs by annexin V/FITC-propidium iodide staining-based flow cytometric method relative to control; format: functional
[19] = tested on: U-251; assay: Antiproliferative activity against human U251 cells assessed as cell proliferation at 6 uM measured after 48 hrs relative to control; format: functional; details: U-251, 48 h, read-out: Activity
[20] = tested on: U-251; assay: Cell cycle arrest in human U251 cells assessed as accumulation at G0/G1 phase at 10 uM measured after 48 hrs by propidium iodide staining based FACScan flow cytometry (reference value: 29.21 %); format: functional
[21] = tested on: U-251; assay: Antiproliferative activity against human U251 cells assessed as cell proliferation at 2 uM measured after 48 hrs relative to control; format: functional; details: U-251, 48 h, read-out: Activity
[22] = tested on: U-251; assay: Induction of morphological changes in human U251 cells assessed as appearance of autophagic vacuoles at 6 to 10 uM measured after 48 hrs by transmission electron microscopy; format: functional, cell-based
[23] = tested on: U-251; assay: Induction of morphological changes in human U251 cells assessed as membrane blebbing at 6 to 10 uM measured after 48 hrs by transmission electron microscopy; format: functional, cell-based
[24] = tested on: U-251; assay: Cell cycle arrest in human U251 cells assessed as accumulation at G0/G1 phase at 6 uM measured after 48 hrs by propidium iodide staining based FACScan flow cytometry (reference value: 29.21 %); format: functional
[25] = tested on: U-251; assay: Antiproliferative activity against human U251 cells assessed as cell proliferation at 10 uM measured after 48 hrs relative to control; format: functional; details: U-251, 48 h, read-out: Activity
[26] = tested on: U-251; assay: Induction of morphological changes in human U251 cells assessed as chromatin condensation at 6 to 10 uM measured after 48 hrs by transmission electron microscopy; format: functional, cell-based
[27] = tested on: U-251; assay: Induction of autophagy in human U251 cells assessed as morphological changes at 10 uM measured after 48 hrs by transmission electron microscopy; format: functional, cell-based
[28] = tested on: U-251; assay: Antiproliferative activity against human U251 cells assessed as reduction in cAMP level at 4 to 10 uM measured after 48 hrs by radio-immunoassay; format: functional, cell-based
[29] = tested on: U-251; assay: Induction of morphological changes in human U251 cells assessed as inhibtion of microvilli at 6 to 10 uM measured after 48 hrs by scanning electron microscopy; format: functional, cell-based
[30] = tested on: U-251; assay: Induction of apoptosis in human U251 cells assessed as increase in apoptotic cells at 2 uM measured after 48 hrs by annexin V/FITC-propidium iodide staining-based flow cytometric method; format: functional, cell-based
[31] = tested on: U-251; assay: Cell cycle arrest in human U251 cells assessed as accumulation at S phase at 10 uM measured after 48 hrs by propidium iodide staining based FACScan flow cytometry (reference value: 16.34 %); format: functional
[32] = tested on: U-251; assay: Induction of morphological changes in human U251 cells assessed as movement of chromatin granules towards periphery of nucleoplasm at 10 uM measured after 48 hrs by transmission electron microscopy; format: functional, cell-based
[33] = tested on: U-251; assay: Antiproliferative activity against human U251 cells assessed as cell proliferation at 4 uM measured after 48 hrs relative to control; format: functional; details: U-251, 48 h, read-out: Activity
[34] = tested on: U-251; assay: Antiproliferative activity against human U251 cells assessed as reduction in cAMP level at 2 uM measured after 48 hrs by radio-immunoassay; format: functional, cell-based
[35] = tested on: U-251; assay: Antiproliferative activity against human U251 cells measured after 48 hrs by MTT assay; format: functional, cell-based
[36] = tested on: U-251; assay: Antiproliferative activity against human U251 cells assessed as cell proliferation at 8 uM measured after 48 hrs relative to control; format: functional; details: U-251, 48 h, read-out: Activity
[37] = tested on: U-251; assay: Cell cycle arrest in human U251 cells assessed as accumulation at G2/M phase at 8 uM measured after 48 hrs by propidium iodide staining based FACScan flow cytometry (reference value: 52.67 %); format: functional
[38] = tested on: C6; assay: Antiproliferative activity against rat C6 cells measured after 48 hrs by MTT assay; format: functional, cell-based
[39] = tested on: U-251; assay: Induction of apoptosis in human U251 cells assessed as apoptotic cells at 4 uM measured after 48 hrs by annexin V/FITC-propidium iodide staining-based flow cytometric method ( Rvb = 2.34%); format: functional
[40] = tested on: U-251; assay: Induction of morphological changes in human U251 cells assessed as appearance of foamy cytoplasmic material at 6 to 10 uM measured after 48 hrs by transmission electron microscopy; format: functional, cell-based

C[C@H]1[C@H](C)CC[C@]2(C(=O)O)CC[C@]3(C)C(=CC[C@@H]4[C@@]5(C)C/C(=C(\c6ccc(O)cc6O)C(c6ccccc6O)c6c[nH]c7ccccc67)C(=O)C(C)(C)[C@@H]5CC[C@]43C)[C@H]12 (stereo not given in full)
Activity [1]: 32.44%
Activity [2]: 35.23%
Activity [3]: 12.51%
Activity [4]: Active
growth at 10 µM [5]: 21%
Activity [6]: 21.65%
growth at 2 µM [7]: 99%
Activity [8]: Active
growth at 6 µM [9]: 68%
Activity [10]: 41.78%
growth at 4 µM [11]: 86%
Activity [12]: Active
Activity [13]: 49.26%
growth at 8 µM [14]: 43%
Activity [15]: 50%
Activity [16]: 11.78%
Activity [17]: 69.32%
Activity [18]: 39.78%
growth at 6 µM [19]: 61%
Activity [20]: 53.76%
growth at 2 µM [21]: 99%
Activity [22]: Active
Activity [23]: Active
Activity [24]: 36.16%
growth at 10 µM [25]: 17%
Activity [26]: Active
Activity [27]: Active
Activity [28]: Active
Activity [29]: Active
Activity [30]: inactive
Activity [31]: 9.65%
Activity [32]: Active
growth at 4 µM [33]: 83%
Activity [34]: inactive
Activity [35]: Dose-dependent effect
growth at 8 µM [36]: 39%
Activity [37]: 42.45%
Activity [38]: Dose-dependent effect
Activity [39]: 8.56%
Activity [40]: Active
